These are literature values, as cited in publication PMC3853718 (Journal of Translational Medicine, 2013).

Like-named read-outs stand apart in the source and are kept apart here.

For data set [1], the system named is solid tumor patients. The following applies: cited from earlier work.
Data set [2] concerns healthy volunteers. The arrangement: method as in PMID 17115157. The following applies: single dose of 160 mg; cited from earlier work.
Data set [3] deals with patients. The following applies: cited from earlier work; for toxicity: 1-hour infusion on days 1, 8, 15 in a 4-week cycle.
In data set [4] the test system is mouse xenograft model. The following applies: cited from earlier work.
The subject of data set [5] is nude mice. The following applies: once-daily administration for 7 days in nude mice; cited from earlier work.

Turning to `Cc1ncc(-c2ccnc(Nc3ccc(S(C)(=O)=O)cc3)n2)n1C(C)C` [AZD5438], the objective responses entry in data set [1] (3 phase 1 trials) was “No responses”. Moreover, the DLT result in data set [2] was “nausea and vomiting”. Moreover, the tolerability result in data set [3] (40 mg four times a day, continuous daily dosing schedules, advanced solid tumors) is “not tolerated”.

`CC(=O)c1c(C)c2cnc(Nc3ccc(N4CCNCC4)cn3)nc2n(C2CCCC2)c1=O` [PD0332991]: the objective responses entry in data set [1] (patient with testicular cancer among 33 patients) is given as “one PR”. Moreover, in data set [3], the DLTs entry is reported as “neutropenia”.

`CC[C@H](CO)Nc1nc(NCc2ccccc2)c2ncn(C(C)C)c2n1` [seliciclib]: the objective responses result in data set [1] (patient with hepatocellular carcinoma among 56 patients) is reported as “one PR”; in data set [1] (separate trial), “No responses”. In addition, the Dose-limiting toxicities result in data set [3] (orally twice daily for 7 days of a 21-day schedule) is “hypokalemia, hyponatremia, elevated gamma-glutamyl transferase, hyperglycemia, and vasculitic rash”.

As to `O=C(NC1CCNCC1)c1[nH]ncc1NC(=O)c1c(Cl)cccc1Cl` [AT7519], the objective responses entry in data set [1] (patient with metastatic NSCLC) is given as “one PR”.

On to `CC(C)CC(=O)Nc1[nH]nc2c1CN(C(=O)C1CCN(C)CC1)C2(C)C` [PHA793887], for which, in data set [1] (first-in-human study in solid tumor patients), the objective responses entry is “did not show any objective responses”. For the same compound, the toxicity result is “grade 4 hepatic failure” in data set [3] (dose level of 66 mg/m^2, one patient) and “fatal hepatorenal failure” in data set [3] (third dose level of 44 mg/m^2, one patient).

For `CN1CC[C@H](c2c(O)cc(O)c3c(=O)cc(-c4ccccc4Cl)oc23)[C@H](O)C1` [flavopiridol], in data set [4], the “minimum effective dose, defined as >50% tumor growth inhibition” value is 10 mg/kg. Moreover, the objective responses result in data set [1] (55 patients, 1-hour daily infusion for 5 days, 3 days, or 1 day in a 21-day cycle) is reported as “No objective responses”; in data set [1] (72-hour continuous infusion every 2 weeks, study of 76 patients, patient with renal cancer), “one PR”; in data set [1] (72-hour continuous infusion every 2 weeks, trial of 38 patients, patient with gastric cancer), “one CR”. Also, the “maximum tolerated dose, defined as the dose associated with 20% weight loss” value in data set [5] is listed as under 10 mg/kg. Besides, the dose-limiting toxicity entry is reported as “dose-limiting diarrhea” in data set [3] (72-hour continuous infusion trials) and “dose-limiting neutropenia” in data set [3] (daily 1-hour infusion schedule).
